Numbered stars: 1 amine (or outer) side, 2 acyl side, 3 side chain; on linkers, the order of the positions; unused ones are H or OH. Square brackets hold non-standard residues; d marks the D form. Peptide text beside a SMILES is read from it. * marks the point of attachment. NMeW = CN[C@@H](Cc1c[nH]c2ccccc12)C(=O)O; X2 = NS(=O)(=O)N[C@@H](CC(=O)O)C(=O)*; NMeY = CN[C@@H](Cc1ccc(O)cc1)C(=O)O; X1 = NC(=O)N[C@@H](CC(=O)O)C(=O)*; NMeF = CN[C@@H](Cc1ccccc1)C(=O)O; NMeI = CC[C@H](C)[C@H](NC)C(=O)O; Aad = N[C@@H](CCCC(=O)O)C(=O)O; NMeD = CN[C@@H](CC(=O)O)C(=O)O; Methoxyoxalyl = COC(=O)C(=O)*; NMeL = CN[C@@H](CC(C)C)C(=O)O; Suc = O=C(CCC(=O)[*:2])[*:1]; NMeV = CN[C@H](C(=O)O)C(C)C; Oxamoyl = NC(=O)C(=O)*; CONHOH = O=C(NO)*
Legend:
[1] = target: T1, Neuromedin-K receptor (Homo sapiens, UniProt P29371); assay: Displacement of ([125I]His3-MePhe7)-NKB from NK3 receptor (unknown origin) expressed in CHO cells by scintillation counter; format: cell-based
T1 sequence (P29371 whole entry): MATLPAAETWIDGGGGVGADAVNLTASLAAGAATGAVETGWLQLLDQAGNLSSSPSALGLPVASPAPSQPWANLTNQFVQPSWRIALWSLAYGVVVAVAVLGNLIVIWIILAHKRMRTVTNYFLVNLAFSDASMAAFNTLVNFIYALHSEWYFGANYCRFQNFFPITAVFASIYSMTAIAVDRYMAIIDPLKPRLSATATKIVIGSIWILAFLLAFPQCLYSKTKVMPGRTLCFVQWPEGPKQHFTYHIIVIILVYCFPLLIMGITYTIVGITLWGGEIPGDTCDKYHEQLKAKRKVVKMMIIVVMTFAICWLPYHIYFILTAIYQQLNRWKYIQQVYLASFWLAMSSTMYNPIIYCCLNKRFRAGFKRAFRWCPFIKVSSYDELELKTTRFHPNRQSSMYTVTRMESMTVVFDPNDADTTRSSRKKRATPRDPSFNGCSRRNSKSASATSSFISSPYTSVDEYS

[2] = target: T1, Neuromedin-K receptor; assay: Agonist activity at human NK3 receptor expressed in CHO cells assessed as calcium influx relative to 100 nM senktide; format: functional, cell-based
[3] = target: Substance-P receptor (Homo sapiens, UniProt P25103); assay: Displacement of [125I]-BH-SP from NK1 receptor (unknown origin) expressed in CHO cells by scintillation counter; format: cell-based
[4] = target: T2, Substance-K receptor (Homo sapiens, UniProt P21452); assay: Displacement of [125I]-NKA from NK2 receptor (unknown origin) expressed in CHO cells by scintillation counter; format: cell-based
T2 sequence (P21452 whole entry): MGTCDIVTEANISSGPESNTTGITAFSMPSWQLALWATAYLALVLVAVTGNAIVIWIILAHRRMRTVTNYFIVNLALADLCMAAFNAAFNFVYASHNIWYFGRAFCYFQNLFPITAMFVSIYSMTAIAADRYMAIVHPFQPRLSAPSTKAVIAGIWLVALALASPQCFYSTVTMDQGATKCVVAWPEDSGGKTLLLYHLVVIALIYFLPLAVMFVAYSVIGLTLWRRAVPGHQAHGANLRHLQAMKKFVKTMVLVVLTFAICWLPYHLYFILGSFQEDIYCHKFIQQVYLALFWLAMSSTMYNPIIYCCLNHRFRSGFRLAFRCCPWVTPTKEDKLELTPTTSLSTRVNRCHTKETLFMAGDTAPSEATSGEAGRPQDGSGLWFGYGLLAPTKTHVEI

[5] = target: T3, Neuromedin-K receptor (Homo sapiens) (UniProt P29371); assay: Potency index, ratio of IC50 for […] to IC50 for test compound for binding affinity to NK3 receptor (unknown origin)
T3 sequence (whole entry): T1 sequence (P29371 whole entry)

[6] = target: T3, Neuromedin-K receptor (Homo sapiens); assay: Potency index, ratio of EC50 for […] to EC50 for test compound for agonist activity at human NK3 receptor

Sequence of Substance-P receptor (P25103 whole entry): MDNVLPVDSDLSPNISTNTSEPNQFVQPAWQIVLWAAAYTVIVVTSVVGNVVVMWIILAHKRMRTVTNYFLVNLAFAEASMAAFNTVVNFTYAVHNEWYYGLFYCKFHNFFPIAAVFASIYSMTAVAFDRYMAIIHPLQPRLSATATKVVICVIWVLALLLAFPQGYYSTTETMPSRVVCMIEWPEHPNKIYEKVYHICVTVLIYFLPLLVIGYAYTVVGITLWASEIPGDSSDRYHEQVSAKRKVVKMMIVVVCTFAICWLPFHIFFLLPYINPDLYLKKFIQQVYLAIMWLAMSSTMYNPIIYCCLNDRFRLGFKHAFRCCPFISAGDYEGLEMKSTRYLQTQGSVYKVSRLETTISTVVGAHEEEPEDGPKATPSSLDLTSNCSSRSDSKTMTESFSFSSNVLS

Row | IC50 [1] [nM] | EC50 [2] [nM] | IC50 [3] [µM] | IC50 [4] [µM] | Ratio IC50 [5] | Ratio EC50 [6] | SMILES
1 | 123 | 0.033 | > 10 | > 10 |  |  | CSCC[C@H](NC(=O)[C@H](CC(C)C)NC(=O)CNC(=O)[C@H](Cc1c[nH]c2ccccc12)N(C)C(=O)[C@H](Cc1ccccc1)NC(=O)[C@H](CC(=O)O)NC(=O)CCC(=O)O)C(N)=O (Suc-DF[NMeW]GLM-NH2)
2 | 5.6 | 0.0025 | > 10 | > 10 |  |  | CSCC[C@H](NC(=O)[C@H](CC(C)C)NC(=O)CNC(=O)[C@H](Cc1ccccc1)N(C)C(=O)[C@H](Cc1ccccc1)NC(=O)[C@H](CC(=O)O)NS(N)(=O)=O)C(N)=O (X2-F[NMeF]GLM-NH2)
3 | 34 | 0.006 | > 10 | > 10 |  |  | CSCC[C@H](NC(=O)[C@H](CC(C)C)NC(=O)CNC(=O)[C@H](Cc1ccccc1)N(C)C(=O)[C@H](Cc1ccccc1)NC(=O)[C@H](CC(=O)O)NC(=O)NN)C(N)=O
4 | 39 | 0.013 | > 10 | > 10 |  |  | CSCC[C@H](NC(=O)[C@H](CC(C)C)NC(=O)CNC(=O)[C@H](Cc1ccccc1)N(C)C(=O)[C@H](Cc1ccccc1)NC(=O)[C@H](CC(=O)O)NC(N)=O)C(N)=O (X1-F[NMeF]GLM-NH2)
5 | > 10000 |  |  |  |  |  | CSCC[C@H](NC(=O)[C@H](CC(C)C)NC(=O)CNC(=O)[C@H](CC(=O)O)N(C)C(=O)[C@H](Cc1ccccc1)NC(=O)[C@H](CC(=O)O)NC(=O)CCC(=O)O)C(N)=O (Suc-DF[NMeD]GLM-NH2)
6 | 7.9 | 0.011 | > 10 | > 10 |  |  | CSCC[C@H](NC(=O)[C@H](CC(C)C)NC(=O)CNC(=O)[C@H](Cc1ccccc1)N(C)C(=O)[C@H](Cc1ccccc1)NC(=O)[C@H](CC(=O)O)NC(=O)C(N)=O)C(N)=O (Oxamoyl-DF[NMeF]GLM-NH2)
7 | 4.1 | 0.0029 | > 10 | > 10 |  |  | COC(=O)C(=O)N[C@@H](CC(=O)O)C(=O)N[C@@H](Cc1ccccc1)C(=O)N(C)[C@@H](Cc1ccccc1)C(=O)NCC(=O)N[C@@H](CC(C)C)C(=O)N[C@@H](CCSC)C(N)=O (Methoxyoxalyl-DF[NMeF]GLM-NH2)
8 |  |  |  | > 10 |  |  | CSCC[C@H](NC(=O)[C@H](CC(C)C)NC(=O)CNC(=O)[C@H](Cc1ccccc1)N(C)C(=O)[C@H](Cc1ccccc1)NC(=O)[C@@H](CC(=O)O)NC(=O)CCC(=O)O)C(N)=O
9 | 83 | 0.024 | > 10 | > 10 |  |  | CSCC[C@H](NC(=O)[C@H](CC(C)C)NC(=O)CNC(=O)[C@H](Cc1ccccc1)N(C)C(=O)[C@H](Cc1ccccc1)NC(=O)[C@@H](CC(=O)O)NC(=O)[C@H](CC(=O)O)NC(C)=O)C(N)=O
10 | 10 | 0.043 | > 10 | > 10 |  |  | CSCC[C@H](NC(=O)[C@H](CC(C)C)NC(=O)CNC(=O)[C@H](Cc1ccccc1)N(C)C(=O)[C@H](Cc1ccccc1)NC(=O)[C@H](CC(=O)O)NC(=O)NO)C(N)=O ({CONHOH}-DF[NMeF]GLM-NH2)
11 | 24 | 0.084 | > 10 | > 10 |  |  | CSCC[C@H](NC(=O)[C@H](CC(C)C)NC(=O)CNC(=O)[C@H](Cc1ccccc1)N(C)C(=O)[C@H](Cc1ccccc1)NC(=O)[C@@H](CCC(=O)O)NC(=O)CCC(=O)O)C(N)=O
12 | 13 | 0.012 | > 10 | > 10 | 3 | 2 | CSCC[C@H](NC(=O)[C@H](CC(C)C)NC(=O)CNC(=O)[C@H](Cc1ccccc1)N(C)C(=O)[C@H](Cc1ccccc1)NC(=O)[C@H](CCC(=O)O)NC(=O)[C@@H](CC(=O)O)NC(C)=O)C(N)=O
13 | 91 | 0.05 | > 10 | > 10 |  |  | CC[C@H](C)[C@@H](C(=O)NCC(=O)N[C@@H](CC(C)C)C(=O)N[C@@H](CCSC)C(N)=O)N(C)C(=O)[C@H](Cc1ccccc1)NC(=O)[C@H](CC(=O)O)NC(=O)CCC(=O)O (Suc-DF[NMeI]GLM-NH2)
14 | 3.5 | 0.022 | > 10 | > 10 | 10 |  | CSCC[C@H](NC(=O)[C@H](CC(C)C)NC(=O)CNC(=O)[C@H](Cc1ccccc1)N(C)C(=O)[C@H](Cc1ccccc1)NC(=O)[C@@H](CC(=O)O)NC(=O)C(=O)O)C(N)=O
15 | 68 | 0.017 | > 10 | > 10 |  |  | CSCC[C@H](NC(=O)[C@H](CC(C)C)NC(=O)CNC(=O)[C@H](Cc1ccccc1)N(C)C(=O)[C@H](Cc1ccccc1)NC(=O)[C@@H](CCC(=O)O)NC(=O)[C@@H](CC(=O)O)NC(C)=O)C(N)=O
16 | 55 | 0.017 | > 10 | > 10 |  |  | CSCC[C@H](NC(=O)[C@H](CC(C)C)NC(=O)CNC(=O)[C@H](Cc1ccccc1)N(C)C(=O)[C@H](Cc1ccccc1)NC(=O)[C@@H](CC(=O)O)NC(=O)[C@@H](CC(=O)O)NC(C)=O)C(N)=O
17 | 28 | 0.041 | > 10 | > 10 |  |  | CSCC[C@H](NC(=O)[C@H](CC(C)C)NC(=O)CNC(=O)[C@H](Cc1ccc(O)cc1)N(C)C(=O)[C@H](Cc1ccccc1)NC(=O)[C@H](CC(=O)O)NC(=O)CCC(=O)O)C(N)=O (Suc-DF[NMeY]GLM-NH2)
18 | 3.6 | 0.083 | > 10 | > 10 | 10 |  | CSCC[C@H](NC(=O)[C@H](CC(C)C)NC(=O)CNC(=O)[C@H](Cc1ccccc1)N(C)C(=O)[C@H](Cc1ccccc1)NC(=O)[C@H](CC(=O)O)NC(=O)C(=O)O)C(N)=O
19 | 6.1 | 0.03 | > 10 | > 10 |  | 2 | CSCC[C@H](NC(=O)[C@H](CC(C)C)NC(=O)CNC(=O)[C@H](Cc1ccccc1)N(C)C(=O)[C@H](Cc1ccccc1)NC(=O)[C@H](CCC(=O)O)NC(=O)CCC(=O)O)C(N)=O
20 | 9.9 | 0.019 | > 10 | > 10 |  | 2 | CSCC[C@H](NC(=O)[C@H](CC(C)C)NC(=O)CNC(=O)[C@H](Cc1ccccc1)N(C)C(=O)[C@H](Cc1ccccc1)NC(=O)[C@H](CCCC(=O)O)NC(=O)CCC(=O)O)C(N)=O (Suc-[Aad]F[NMeF]GLM-NH2)
21 | 7.7 | 0.0081 | > 10 | > 10 | 5 | 3 | CSCC[C@H](NC(=O)[C@H](CC(C)C)NC(=O)CNC(=O)[C@H](Cc1ccccc1)N(C)C(=O)[C@H](Cc1ccccc1)NC(=O)[C@H](CCC(=O)O)NC(=O)[C@H](CC(=O)O)NC(C)=O)C(N)=O
22 | 104 | 0.064 | > 10 | > 10 |  |  | CSCC[C@H](NC(=O)[C@H](CC(C)C)NC(=O)CNC(=O)[C@H](C(C)C)N(C)C(=O)[C@H](Cc1ccccc1)NC(=O)[C@H](CC(=O)O)NC(=O)CCC(=O)O)C(N)=O (Suc-DF[NMeV]GLM-NH2)
23 | 37 | 0.018 | > 10 | > 10 |  |  | CSCC[C@H](NC(=O)[C@H](CC(C)C)NC(=O)CNC(=O)[C@H](Cc1ccccc1)N(C)C(=O)[C@H](Cc1ccccc1)NC(=O)[C@@H](CCC(=O)O)NC(=O)[C@H](CC(=O)O)NC(C)=O)C(N)=O
24 | 175 | 0.063 | > 10 | > 10 |  |  | CSCC[C@H](NC(=O)[C@H](CC(C)C)NC(=O)CNC(=O)[C@H](Cc1ccccc1)N(C)C(=O)[C@H](Cc1ccccc1)NC(=O)[C@H](CC(=O)O)NC(=O)[C@@H](N)CC(=O)O)C(N)=O (H-DDF[NMeF]GLM-NH2)
25 | 68 | 0.031 | > 10 | > 10 |  |  | CSCC[C@H](NC(=O)[C@H](CC(C)C)NC(=O)CNC(=O)[C@H](Cc1ccccc1)N(C)C(=O)[C@H](Cc1ccccc1)NC(=O)[C@H](CC(=O)O)NC(=O)[C@H](CC(=O)O)NC(C)=O)C(N)=O
26 | > 10000 |  |  |  |  |  | CSCC[C@H](NC(=O)[C@H](CC(C)C)NC(=O)CNC(=O)[C@H](CC(C)C)N(C)C(=O)[C@H](Cc1ccccc1)NC(=O)[C@H](CC(=O)O)NC(=O)CCC(=O)O)C(N)=O (Suc-DF[NMeL]GLM-NH2)
27 | 73 | 0.018 | > 10 | > 10 |  |  | CSCC[C@H](NC(=O)[C@H](CC(C)C)NC(=O)CNC(=O)[C@H](Cc1ccccc1)N(C)C(=O)[C@H](Cc1ccccc1)NC(=O)[C@H](CC(=O)O)NC(=O)[C@@H](CC(=O)O)NC(C)=O)C(N)=O

From ChEMBL document CHEMBL3734731 (Medchemcomm, 2015)
